# Data: ChEMBL document CHEMBL5154823, “Amphiphilic cyclic peptide [W4KR5]-Antibiotics combinations as broad-spectrum antimicrobial agents” (Eur J Med Chem, 2022)
# Activity calls are given as the source filed them. The calls are words filed in the database; no cut-off is given here. Where a SMILES comes first, the peptide text is derived from it.
# Tests used:
# HEK293 = assay: Cytotoxicity against HEK293 cells assessed as effect on cell viability at 10 ug/ml incubated for 24 hrs by microplate reader analysis; assay type: toxicity, cell-based; details: human, hek293, 24 h, dose 10 µg/ml
# Klebsiella pneumoniae [1] = assay: Synergistic antibacterial activity against Klebsiella pneumoniae ATCC BAA 1705 assessed as fractional inhibitory concentration index incubated for 24 hrs in presence of clindamycin by checkerboard assay; assay type: functional
# Escherichia coli [2] = assay: Bactericidal activity against Escherichia coli ATCC BAA 2452 assessed as reduction in colony formation at MIC measured after 12 hrs by Time kill assay; assay type: functional, organism-based
# Klebsiella pneumoniae [3] = assay: Synergistic antibacterial activity against Klebsiella pneumoniae ATCC BAA 1705 assessed as fractional inhibitory concentration index incubated for 24 hrs in presence of levofloxacin by checkerboard assay; assay type: functional
# Escherichia coli [4] = assay: Synergistic antibacterial activity against Escherichia coli ATCC 25922 assessed as fractional inhibitory concentration index incubated for 24 hrs in presence of kanamycin by checkerboard assay; assay type: functional
# Pseudomonas aeruginosa [5] = assay: Synergistic antibacterial activity against Pseudomonas aeruginosa ATCC 27883 assessed as fractional inhibitory concentration index incubated for 24 hrs in presence of meropenem by checkerboard assay; assay type: functional
# Pseudomonas aeruginosa [6] = assay: Antibacterial activity against Pseudomonas aeruginosa ATCC 27883 assessed as levofloxacin MIC incubated for 24 hrs by microbroth dilution assay; assay type: functional
# Klebsiella pneumoniae [7] = assay: Synergistic antibacterial activity against Klebsiella pneumoniae ATCC 13883 assessed as fractional inhibitory concentration index incubated for 24 hrs in presence of meropenem by checkerboard assay; assay type: functional
# Escherichia coli [8] = assay: Antibacterial activity against carbapenem and NDM-1 positive resistant Escherichia coli ATCC BAA 2452 assessed as reduction in microbial growth incubated for 24 hrs by microbroth dilution method; assay type: functional
# Staphylococcus aureus [9] = assay: Synergistic antibacterial activity against methicillin resistant Staphylococcus aureus ATCC BAA -1556 assessed as fractional inhibitory concentration index incubated for 24 hrs in presence of daptomycin by checkerboard assay; assay type: functional
# Pseudomonas aeruginosa [10] = assay: Antibacterial activity against carbapenem resistant Pseudomonas aeruginosa ATCC BAA 1744 assessed as reduction in microbial growth incubated for 24 hrs by microbroth dilution method; assay type: functional
# Klebsiella pneumoniae [11] = assay: Antibacterial activity against Klebsiella pneumoniae ATCC BAA 1705 assessed as daptomycin MIC incubated for 24 hrs by microbroth dilution assay; assay type: functional
# HepaRG = assay: Cytotoxicity against human HepaRG cells assessed as assessed as reduction in cell viability at 10 ug/ml incubated for 24 hrs by microplate reader analysis; assay type: toxicity, cell-based; details: dose 10 µg/ml
# Klebsiella pneumoniae [12] = assay: Synergistic antibacterial activity against Klebsiella pneumoniae ATCC BAA 1705 assessed as fractional inhibitory concentration index incubated for 24 hrs in presence of daptomycin by checkerboard assay; assay type: functional
# Escherichia coli [13] = assay: Synergistic antibacterial activity against Escherichia coli ATCC 25922 assessed as fractional inhibitory concentration index incubated for 24 hrs in presence of levofloxacin by checkerboard assay; assay type: functional
# Staphylococcus aureus [14] = assay: Antibacterial activity against Methicillin resistant Staphylococcus aureus ATCC BAA -1556 assessed as reduction in microbial growth incubated for 24 hrs by microbroth dilution method; assay type: functional
# Staphylococcus aureus [15] = assay: Synergistic antibacterial activity against methicillin resistant Staphylococcus aureus ATCC BAA -1556 assessed as fractional inhibitory concentration index incubated for 24 hrs in presence of vancomycin by checkerboard assay; assay type: functional
# Klebsiella pneumoniae [16] = assay: Synergistic antibacterial activity against Klebsiella pneumoniae ATCC BAA 1705 assessed as fractional inhibitory concentration index incubated for 24 hrs in presence of tetracycline by checkerboard assay; assay type: functional
# Staphylococcus aureus [17] = assay: Antibacterial activity against Staphylococcus aureus ATCC BAA -1556 assessed as daptomycin MIC incubated for 24 hrs by microbroth dilution assay; assay type: functional
# Staphylococcus aureus [18] = assay: Bactericidal activity against methicillin resistant Staphylococcus aureus ATCC BAA 1556 assessed as reduction in colony formation at MIC measured at 8 to 12 hrs by Time kill assay; assay type: functional, organism-based; details: time 8-12 hrs
# Escherichia coli [19] = assay: Antibacterial activity against Escherichia coli ATCC 25922 assessed as kanamycin MIC incubated for 24 hrs by microbroth dilution assay; assay type: functional
# Staphylococcus aureus [20] = assay: Synergistic antibacterial activity against methicillin resistant Staphylococcus aureus ATCC BAA -1556 assessed as fractional inhibitory concentration index incubated for 24 hrs in presence of meropenem by checkerboard assay; assay type: functional
# Escherichia coli [21] = assay: Antibacterial activity against Escherichia coli ATCC 25922 assessed as ciprofloxacin MIC incubated for 24 hrs by microbroth dilution assay; assay type: functional
# Klebsiella pneumoniae [22] = assay: Synergistic antibacterial activity against Klebsiella pneumoniae ATCC BAA 1705 assessed as fractional inhibitory concentration index incubated for 24 hrs in presence of tobramycin by checkerboard assay; assay type: functional
# Pseudomonas aeruginosa [23] = assay: Synergistic antibacterial activity against Pseudomonas aeruginosa ATCC 27883 assessed as fractional inhibitory concentration index incubated for 24 hrs in presence of vancomycin by checkerboard assay; assay type: functional
# Klebsiella pneumoniae [24] = assay: Synergistic antibacterial activity against imipenem resistant Klebsiella pneumoniae ATCC BAA 1705 assessed as fractional inhibitory concentration index incubated for 24 hrs in presence of meropenem; assay type: functional
# Staphylococcus aureus [25] = assay: Antibacterial activity against Staphylococcus aureus ATCC BAA -1556 assessed as tetracycline MIC incubated for 24 hrs by microbroth dilution assay; assay type: functional
# Staphylococcus aureus [26] = assay: Bactericidal activity against methicillin resistant Staphylococcus aureus ATCC BAA 1556 assessed as reduction in bacterial viability at MIC measured after 4 hrs by Time kill assay; assay type: functional, organism-based
# Escherichia coli [27] = assay: Synergistic antibacterial activity against Escherichia coli ATCC 25922 assessed as fractional inhibitory concentration index incubated for 24 hrs in presence of vancomycin by checkerboard assay; assay type: functional
# Escherichia coli [28] = assay: Synergistic antibacterial activity against Escherichia coli ATCC 25922 assessed as fractional inhibitory concentration index incubated for 24 hrs in presence of tetracycline by checkerboard assay; assay type: functional
# Escherichia coli [29] = assay: Synergistic antibacterial activity against carbapenem and NDM-1 positive resistant Escherichia coli ATCC BAA 2452 assessed as fractional inhibitory concentration index incubated for 24 hrs in presence of meropenem by checkerboard assay; assay type: functional
# Pseudomonas aeruginosa [30] = assay: Synergistic antibacterial activity against Pseudomonas aeruginosa ATCC 27883 assessed as fractional inhibitory concentration index incubated for 24 hrs in presence of levofloxacin by checkerboard assay; assay type: functional
# Pseudomonas aeruginosa [31] = assay: Synergistic antibacterial activity against Pseudomonas aeruginosa ATCC 27883 assessed as fractional inhibitory concentration index incubated for 24 hrs in presence of tobramycin by checkerboard assay; assay type: functional
# Staphylococcus aureus [32] = assay: Antibacterial activity against Staphylococcus aureus ATCC BAA -1556 assessed as vancomycin MIC incubated for 24 hrs by microbroth dilution assay; assay type: functional
# Pseudomonas aeruginosa [33] = assay: Bactericidal activity against Pseudomonas aeruginosa ATCC BAA 1744 assessed as reduction in bacterial growth at MIC measured after 4 hrs by Time kill assay; assay type: functional, organism-based
# Escherichia coli [34] = assay: Antibacterial activity against Escherichia coli ATCC 25922 assessed as reduction in microbial growth incubated for 24 hrs by microbroth dilution method; assay type: functional
# Pseudomonas aeruginosa [35] = assay: Synergistic antibacterial activity against Pseudomonas aeruginosa ATCC 27883 assessed as fractional inhibitory concentration index incubated for 24 hrs in presence of tetracycline by checkerboard assay; assay type: functional
# Staphylococcus aureus [36] = assay: Synergistic antibacterial activity against methicillin resistant Staphylococcus aureus ATCC BAA -1556 assessed as fractional inhibitory concentration index incubated for 24 hrs in presence of clindamycin by checkerboard assay; assay type: functional
smiles,measurement,setting,value
N=C(N)NCCC[C@@H]1NC(=O)[C@H](CCCNC(=N)N)NC(=O)[C@H](CCCNC(=N)N)NC(=O)[C@H](CCCNC(=N)N)NC(=O)[C@H](Cc2c[nH]c3ccccc23)NC(=O)[C@H](Cc2c[nH]c3ccccc23)NC(=O)[C@H](Cc2c[nH]c3ccccc23)NC(=O)[C@H](Cc2c[nH]c3ccccc23)NC(=O)[C@H](CCCCN)NC(=O)[C@H](CCCNC(=N)N)NC1=O (cyclo(KWWWWRRRRR)),Activity,HEK293,Non-Toxic
same,fractional inhibitory concentration index (FICI),Klebsiella pneumoniae [1],0.257
same,Activity,Escherichia coli [2],Active
same,fractional inhibitory concentration index (FICI),Klebsiella pneumoniae [3],0.375
same,fractional inhibitory concentration index (FICI),Escherichia coli [4],0.375
same,fractional inhibitory concentration index (FICI),Pseudomonas aeruginosa [5],0.375
same,MIC,Pseudomonas aeruginosa [6],0.125 µg/mL
same,fractional inhibitory concentration index (FICI),Klebsiella pneumoniae [7],0.625
same,MIC,Escherichia coli [8],16 µg/mL
same,fractional inhibitory concentration index (FICI),Staphylococcus aureus [9],0.5
same,MIC,Pseudomonas aeruginosa [10],16 µg/mL
same,MIC,Klebsiella pneumoniae [11],16 µg/mL
same,Activity,HepaRG,Non-Toxic
same,fractional inhibitory concentration index (FICI),Klebsiella pneumoniae [12],0.313
same,fractional inhibitory concentration index (FICI),Escherichia coli [13],0.375
same,MIC,Staphylococcus aureus [14],4 µg/mL
same,fractional inhibitory concentration index (FICI),Staphylococcus aureus [15],0.5
same,fractional inhibitory concentration index (FICI),Klebsiella pneumoniae [16],0.3125
same,MIC,Staphylococcus aureus [17],0.5 µg/mL
same,Activity,Staphylococcus aureus [18],Active
same,MIC,Escherichia coli [19],4 µg/mL
same,fractional inhibitory concentration index (FICI),Staphylococcus aureus [20],1
same,MIC,Escherichia coli [21],8 µg/mL
same,fractional inhibitory concentration index (FICI),Klebsiella pneumoniae [22],0.375
same,fractional inhibitory concentration index (FICI),Pseudomonas aeruginosa [23],0.531
same,fractional inhibitory concentration index (FICI),Klebsiella pneumoniae [24],0.75
same,MIC,Staphylococcus aureus [25],0.0625 µg/mL
same,Activity,Staphylococcus aureus [26],Active
same,fractional inhibitory concentration index (FICI),Escherichia coli [27],0.5625
same,fractional inhibitory concentration index (FICI),Escherichia coli [28],0.5
same,fractional inhibitory concentration index (FICI),Escherichia coli [29],0.5
same,fractional inhibitory concentration index (FICI),Pseudomonas aeruginosa [30],0.375
same,fractional inhibitory concentration index (FICI),Pseudomonas aeruginosa [31],0.5
same,MIC,Staphylococcus aureus [32],0.25 µg/mL
same,Activity,Pseudomonas aeruginosa [33],Active
same,MIC,Escherichia coli [34],16 µg/mL
same,fractional inhibitory concentration index (FICI),Pseudomonas aeruginosa [35],0.375
same,fractional inhibitory concentration index (FICI),Staphylococcus aureus [36],0.498
